Patent US9422285B2, “Substituted pyrazolo[1,5-A]-pyridine-3-carboxamides and use thereof” (Bayer Pharma Aktiengesellschaft, priority 2014, dated 2016)
Counter-ions that a name gives are not always drawn.

molecular target: T1, recombinant guanylate cyclase reporter cell line (Rattus norvegicus, UniProt P19686+P20595); test: Effect on a recombinant guanylate cyclase reporter cell line (B-2); assay type: cell-based; settings: in some cases mean values for individual determinations
T1 construct: expressed in transfected cells
T1 sequence (P19686 1-690): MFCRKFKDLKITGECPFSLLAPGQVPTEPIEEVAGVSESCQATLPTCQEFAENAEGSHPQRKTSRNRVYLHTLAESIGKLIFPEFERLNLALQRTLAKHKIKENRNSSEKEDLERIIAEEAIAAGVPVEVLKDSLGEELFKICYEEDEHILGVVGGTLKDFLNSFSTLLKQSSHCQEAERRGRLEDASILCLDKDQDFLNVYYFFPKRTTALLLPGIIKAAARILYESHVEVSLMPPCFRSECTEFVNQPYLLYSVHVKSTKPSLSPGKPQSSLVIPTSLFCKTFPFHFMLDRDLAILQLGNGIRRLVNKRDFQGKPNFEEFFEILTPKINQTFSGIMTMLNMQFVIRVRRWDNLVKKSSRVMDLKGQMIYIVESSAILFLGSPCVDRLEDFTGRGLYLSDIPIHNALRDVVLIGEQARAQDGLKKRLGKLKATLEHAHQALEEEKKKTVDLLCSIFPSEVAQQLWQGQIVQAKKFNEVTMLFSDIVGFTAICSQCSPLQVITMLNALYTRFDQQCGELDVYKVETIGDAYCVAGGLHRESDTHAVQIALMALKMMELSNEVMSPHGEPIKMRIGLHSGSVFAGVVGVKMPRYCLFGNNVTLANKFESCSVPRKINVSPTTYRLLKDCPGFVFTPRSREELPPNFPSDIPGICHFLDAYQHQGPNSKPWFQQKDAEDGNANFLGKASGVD
T1 sequence (P20595 1-619): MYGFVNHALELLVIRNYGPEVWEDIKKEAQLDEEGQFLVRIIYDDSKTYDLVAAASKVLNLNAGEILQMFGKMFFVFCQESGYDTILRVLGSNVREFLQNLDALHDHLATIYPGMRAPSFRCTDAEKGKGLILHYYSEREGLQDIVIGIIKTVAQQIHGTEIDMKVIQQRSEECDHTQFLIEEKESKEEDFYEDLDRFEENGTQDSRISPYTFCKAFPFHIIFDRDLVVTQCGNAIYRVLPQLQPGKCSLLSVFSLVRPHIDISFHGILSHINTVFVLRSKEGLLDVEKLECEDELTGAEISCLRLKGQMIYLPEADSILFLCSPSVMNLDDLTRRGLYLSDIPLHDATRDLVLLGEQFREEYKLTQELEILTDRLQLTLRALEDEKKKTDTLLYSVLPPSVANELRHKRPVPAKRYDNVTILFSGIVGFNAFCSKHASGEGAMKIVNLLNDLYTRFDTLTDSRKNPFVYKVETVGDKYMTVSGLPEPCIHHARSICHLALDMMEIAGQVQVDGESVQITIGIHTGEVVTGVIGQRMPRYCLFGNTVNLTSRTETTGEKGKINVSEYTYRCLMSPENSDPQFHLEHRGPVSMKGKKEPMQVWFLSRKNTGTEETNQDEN
Protocol: B-2. Effect on a Recombinant Guanylate Cyclase Reporter Cell Line
The cellular effect of the inventive compounds is determined using a recombinant guanylate cyclase reporter cell line, as described in F. Wunder et al., Anal. Biochem. 339, 104-112 (2005).
Representative MEC values (MEC=minimum effective concentration) for the inventive compounds are shown in the table below (in some cases as mean values for individual determinations): […]

| Compound | MEC (minimum effective concentration) [µM] |
| --- | --- |
| Cc1cc(OCc2c(F)cccc2F)n2nc(C)c(C(=O)NC(CN)c3ccc4c(c3)OCO4)c2c1 (racemic) [Example 120, rac-N-[2-Amino-1-(1,3-benzodioxol-5-yl)ethyl]-7-[(2,6-difluorobenzyl)oxy]-2,5-dimethylpyrazolo[1,5-a]pyridine-3-carboxamide] | 1.0 |
| COCC(C)(N)CNC(=O)c1c(C)nn2c(OCc3c(F)cccc3F)cc(C)cc12 (racemic) [Example 97, rac-N-(2-Amino-3-methoxy-2-methylpropyl)-7-[(2,6-difluorobenzyl)oxy]-2,5-dimethylpyrazolo[1,5-a]pyridine-3-carboxamide] | 1.0 |
| Cc1cc(OCc2c(F)ccc(F)c2F)n2nc(C)c(C(=O)NC3CC3c3ccccc3)c2c1 (racemic) [Example 10, rac-2,5-Dimethyl-N-(2-phenylcyclopropyl)-7-[(2,3,6-trifluorobenzyl)oxy]pyrazolo[1,5-a]pyridine-3-carboxamide] | 1.0 |
| COC(=O)[C@@H](N)CCCCNC(=O)c1c(C)nn2c(OCc3c(F)cccc3F)cc(C)cc12 [Example 131, Methyl N^6-({7-[(2,6-difluorobenzyl)oxy]-2,5-dimethylpyrazolo[1,5-a]pyridin-3-yl}carbonyl)-L-lysinate] | 3.0 |
| CCCC[C@H](CO)NC(=O)c1c(C)nn2c(OCc3c(F)cccc3F)cc(C)cc12 [Example 144, 7-[(2,6-Difluorobenzyl)oxy]-N-[(2R)-1-hydroxyhexan-2-yl]-2,5-dimethylpyrazolo[1,5-a]pyridine-3-carboxamide] | 0.1 |
| CCOC(=O)c1cccc(C(CN)NC(=O)c2c(C)nn3c(OCc4c(F)cccc4F)cc(C)cc23)n1 (racemic) [Example 83, rac-Ethyl 6-{2-amino-1-[({7-[(2,6-difluorobenzyl)oxy]-2,5-dimethylpyrazolo[1,5-a]pyridin-3-yl}carbonyl)amino]ethyl} pyridine-2-carboxylate trifluoroacetate] | 3.0 |
| CCC(C)(N)CNC(=O)c1c(C)nn2c(OCc3c(F)cccc3F)cc(C)cc12 (single isomer, unassigned) [Example 2, ent-N-(2-Amino-2-methylbutyl)-7-[(2,6-difluorobenzyl)oxy]-2,5-dimethylpyrazolo[1,5-a]pyridine-3-carboxamide formate] | 0.3 |
| CC=CCC(N)CNC(=O)c1c(C)nn2c(OCc3c(F)cccc3F)cc(C)cc12 (racemic) [Example 115, rac-N-[2-Aminohex-4-en-1-yl]-7-[(2,6-difluorobenzyl)oxy]-2,5-dimethylpyrazolo[1,5-a]pyridine-3-carboxamide] | 0.3 |
| Cc1cc(OCc2c(F)cccc2F)n2nc(C)c(C(=O)NC3Cc4ccccc4C3N)c2c1 (centres unmarked) [Example 70, N-(1-Amino-2,3-dihydro-1H-inden-2-yl)-7-[(2,6-difluorobenzyl)oxy]-2,5-dimethylpyrazolo[1,5-a]pyridine-3-carboxamide] | 3.0 |
| Cc1cc(OCc2c(F)cccc2F)n2nc(C)c(C(=O)N[C@H]3CCNC3=O)c2c1 [Example 149, 7-[(2,6-Difluorobenzyl)oxy]-2,5-dimethyl-N-[(3S)-2-oxopyrrolidin-3-yl]pyrazolo[1,5-a]pyridine-3-carboxamide] | 1.0 |

Next, values leading:

| MEC (minimum effective concentration) [µM] | Compound |
| --- | --- |
| 1.0 | Cc1cc(OCc2c(F)cccc2F)n2nc(C)c(C(=O)NC(CN)c3cccc(OC(F)(F)F)c3)c2c1 (racemic) [Example 132, rac-N-{2-Amino-1-[3-(trifluoromethoxy)phenyl]ethyl}-7-[(2,6-difluorobenzyl)oxy]-2,5-dimethylpyrazolo[1,5-a]pyridine-3-carboxamide] |
| 1.0 | CCCC(C)(N)CNC(=O)c1c(C)nn2c(OCc3c(F)cccc3Cl)cc(C)cc12 (racemic) [Example 164] |
| 1.0 | Cc1cc(OCc2c(F)cccc2F)n2nc(C)c(C(=O)NN3CCN(C)CC3)c2c1 [Example 173, 7-[(2,6-Difluorobenzyl)oxy]-2,5-dimethyl-N-(4-methylpiperazin-1-yl)pyrazolo[1,5-a]pyridine-3-carboxamide] |
| 1.0 | Cc1cc(OCc2c(F)cccc2F)n2nc(C)c(C(=O)NCC(C)(N)CCOCc3ccccc3)c2c1 (racemic) [Example 78, rac-N-[2-Amino-4-(benzyloxy)-2-methylbutyl]-7-[(2,6-difluorobenzyl)oxy]-2,5-dimethylpyrazolo[1,5-a]pyridine-3-carboxamide] |
| 0.3 | Cc1cc(OCc2c(F)ccc(F)c2F)n2nc(C)c(C(=O)N[C@H]3CCOC3=O)c2c1 [Example 27, 2,5-Dimethyl-N-[(3S)-2-oxotetrahydrofuran-3-yl]-7-[(2,3,6-trifluorobenzyl)oxy]pyrazolo[1,5-a]pyridine-3-carboxamide] |
| 1.0 | Cc1ccc2c(c1)OC(C)(C)CC2NC(=O)c1c(C)nn2c(OCc3c(F)cccc3F)cc(C)cc12 (racemic) [Example 137, rac-7-[(2,6-Difluorobenzyl)oxy]-2,5-dimethyl-N-(2,2,7-trimethyl-3,4-dihydro-2H-chromen-4-yl)pyrazolo[1,5-a]pyridine-3-carboxamide] |
| 0.3 | CCC(C)(N)CNC(=O)c1c(C)nn2c(OCc3c(F)ccc(F)c3F)cc(C)cc12 (single isomer, unassigned) [Example 3, ent-N-(2-Amino-2-methylbutyl)-2,5-dimethyl-7-[(2,3,6-trifluorobenzyl)oxy]pyrazolo[1,5-a]pyridine-3-carboxamide] |
| 3.0 | Cc1cc(OCc2c(F)cccc2F)n2nc(C)c(C(=O)N[C@H]3C[C@H]4CN(C)CCN4C3)c2c1 [Example 113, 7-[(2,6-Difluorobenzyl)oxy]-2,5-dimethyl-N-[(7S,8aS)-2-methyloctahydropyrrolo[1,2-a]pyrazin-7-yl]pyrazolo[1,5-a]pyridine-3-carboxamide] |
| 1.0 | Cc1cc(OCc2c(F)ccc(F)c2F)n2nc(C)c(C(=O)NC(C#N)c3ccc(Cl)cc3)c2c1 (centres unmarked) [Example 34, N-[(4-Chlorophenyl)(cyano)methyl]-2,5-dimethyl-7-[(2,3,6-trifluorobenzyl)oxy]pyrazolo[1,5-a]pyridine-3-carboxamide] |
| 1.0 | Cc1cc(OCc2c(F)ccc(F)c2F)n2nc(C)c(C(=O)NCC(C)(N)C3CC3)c2c1 (racemic) [Example 13, rac-N-(2-Amino-2-cyclopropylpropyl)-2,5-dimethyl-7-[(2,3,6-trifluorobenzyl)oxy]pyrazolo[1,5-a]pyridine-3-carboxamide] |
| 0.3 | Cc1cc(OCc2c(F)cccc2F)n2nc(C3CC3)c(C(=O)NCC(C)(N)CC(F)F)c2c1 (single isomer, unassigned) [Example 57, ent-N-(2-Amino-4,4-difluoro-2-methylbutyl)-2-cyclopropyl-7-[(2,6-difluorobenzyl)oxy]-5-methylpyrazolo[1,5-a]pyridine-3-carboxamide] |
| 3.0 | Cc1cc(OCc2c(F)cccc2F)n2nc(C)c(C(=O)NCC(N)c3cccc(OC(F)F)c3)c2c1 (racemic) [Example 116, rac-N-{2-Amino-2-[3-(difluoromethoxy)phenyl]ethyl}-7-[(2,6-difluorobenzyl)oxy]-2,5-dimethylpyrazolo[1,5-a]pyridine-3-carboxamide] |
| 0.3 | Cc1cc(OCc2c(F)cccc2F)n2nc(C)c(C(=O)N[C@H]3c4ccccc4C[C@H]3O)c2c1 [Example 71, 7-[(2,6-Difluorobenzyl)oxy]-N-[(1S,2R)-2-hydroxy-2,3-dihydro-1H-inden-1-yl]-2,5-dimethylpyrazolo[1,5-a]pyridine-3-carboxamide trifluoroacetate] |
